Here are results for 15 molecules from PubChem BioAssay (NCI).

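Interpolation was linear, between the two tested concentrations surrounding the appropriate level; five concentrations were tested over 48 hours in 96-well plates. GI50 = concentration required for 50% inhibition of growth. TGI: concentration producing complete growth inhibition.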

Common to all, as to test: inhibition of tumour cell growth, NCI panel, 48 h
For experiment [1], the system named is SK-MEL-28 melanoma.
For experiment [2], the system named is SK-MEL-2 melanoma.
For experiment [3], the system named is NCI/ADR-RES ovarian.
The test system of experiment [4] is SF-295 CNS.
The test system of experiment [5] is NCI-H23 lung.
The test system of experiment [6] is A498 renal.
In experiment [7] the test system is OVCAR-3 ovarian.
The subject of experiment [8] is EKVX NSCLC.
Experiment [9] concerns OVCAR-5 ovarian.
For experiment [10], the system named is MDA-MB-231 breast.

Turning to `CC(C)CCCC(C)[C@H]1CCC(C2C[C@@H](O)[C@@H]3CC(O)[C@@H](O)C[C@]3(CO)C2=O)[C@]1(C)CCO` (some centres undefined), the TGI was 40.5 µM in experiment [1]; 39.7 µM in [2]; > 100 µM in experiment [3]; 40 µM in experiment [4]; > 90.5 µM in experiment [5]; 48.9 µM in experiment [6]. Moreover, the TGI in experiment [7] was 47.9 µM; in experiment [8], > 94.9 µM; in experiment [9], 55.8 µM.
Take `O=C1c2ccccc2-c2nc3ccncc3n21`: the TGI in [1], in [2], in experiment [3], in experiment [4], in [5] and in experiment [7] was > 100 µM in each case. Moreover, the TGI in experiment [8] and in experiment [9] was > 100 µM throughout.
As to `COc1ccccc1NC(=O)C(=O)C(C(=O)c1ccccc1F)C1OC(=O)c2ccccc21` (centres undefined), the TGI in experiment [1] is > 100 µM; in [2], > 100 µM; in experiment [4], > 100 µM; in experiment [5], 57.6 µM; in [6], > 100 µM; in [8] it was > 100 µM. The TGI in experiment [9] was > 100 µM.
On to `C[s+]1c2ccccc2c2ccccc21`, for which the TGI in [1], in experiment [2], in [4], in [7], in [8] and in [9] was > 100 µM in each case.
On to `C/C(=C1\N=C(c2ccccc2)OC1=O)c1ccccc1`, for which the TGI in [1], in experiment [2], in [4], in experiment [5], in [6] and in [7] was > 100 µM in each case. Besides, the TGI in experiment [8] and in experiment [9] was > 100 µM in each case.
Consider `CC(Nc1ccc(Cl)cc1)c1ccncc1` (centres undefined), for which the TGI in experiment [1], in experiment [2], in [3], in experiment [4], in experiment [5] and in [6] was > 100 µM throughout. Further, the TGI in experiment [7], in [8] and in experiment [9] was > 100 µM each time.
For `O=[N+]([O-])c1ccc(-n2nc3ccc4nonc4c3n2)cc1`, the TGI in experiment [1] is > 100 µM; in [2], > 100 µM; in experiment [3], > 100 µM; in experiment [4] it was 87.9 µM; in experiment [5], > 100 µM; in [7], > 100 µM. Besides, the TGI in experiment [10], in [8] and in [9] was > 100 µM in each case.
In the case of `O=C1c2cc3c(cc2-c2c1c1cc(F)c(F)cc1c(=O)n2CCCn1ccnc1)OCO3`, the GI50 is 0.228 µM in experiment [1]; 0.256 µM in [2]; < 0.01 µM in experiment [4]; 0.0204 µM in experiment [5]; 0.0233 µM in [6]; 0.116 µM in [7]. Also, the results for the GI50 in experiment [10], in [8] and in experiment [9] were 0.311 µM, 0.687 µM and 0.0832 µM, respectively. The TGI in experiment [1] was > 100 µM; in experiment [2], 0.93 µM; in experiment [4], 0.0133 µM; in experiment [5] it was 0.29 µM; in experiment [6], 0.116 µM; in experiment [7], 1.52 µM. For the same molecule, the TGI in experiment [10], in [8] and in experiment [9] was > 100 µM in each case.
Regarding `Cc1nc(NC(C)(CO)CO)nc(N/N=C/c2ccc(Cl)cc2)c1C(=O)Nc1ccc(Cl)cc1`, the TGI in experiment [1], in experiment [2], in experiment [3], in experiment [4], in experiment [5] and in experiment [7] was > 100 µM in each case. For the same molecule, the TGI in [10], in experiment [8] and in [9] was > 100 µM throughout.
As to `CCOc1ccc2nc(NC(=O)C(=O)C(C(=O)c3ccccc3F)C3OC(=O)c4ccccc43)sc2c1` (centres undefined), the TGI in experiment [1] is 46.5 µM; in experiment [2], 39.1 µM; in experiment [6] it was > 100 µM; in experiment [8], 45.3 µM.
Turning to `CC1=NN(C(=O)CC(=O)Nc2cccc(C)c2)C(=O)C1N=Nc1ccc(S(=O)(=O)CCOS(=O)(=O)O)cc1` (centres undefined), the TGI came out at 19.7 µM in experiment [1]; 2.67 µM in experiment [2]; 11.3 µM in [4]; 24.6 µM in experiment [5]; 37.1 µM in experiment [6]; 14.9 µM in experiment [7]. Besides, the TGI is 14.8 µM in experiment [10], > 64.6 µM in experiment [8] and 66.2 µM in experiment [9].
Consider `N#Cc1ccccc1NC(=O)C(=O)C(C(=O)c1ccccc1F)C1OC(=O)c2ccccc21` (centres undefined), for which the TGI is > 100 µM in experiment [1]; 68.8 µM in experiment [2]; > 100 µM in experiment [4]; > 100 µM in experiment [5]; > 100 µM in experiment [6]; > 100 µM in experiment [8]. The TGI in [9] is > 100 µM.
Regarding `CN(CCCCCl)P(=O)(OCc1ccc([N+](=O)[O-])o1)OCC1OC(n2ccc(N)nc2=O)C(O)C1O` (centres undefined), the TGI in experiment [1] is > 100 µM; in experiment [2], 53.1 µM; in experiment [3] it was > 100 µM; in experiment [4], 57.7 µM; in experiment [5] it was 33.1 µM; in experiment [7], 17.2 µM. In addition, the TGI in [10] is 67.3 µM; in experiment [9], > 100 µM.
Consider `CCCCCC[C@H]([C@H](C)O)n1cnc2c(N)ncnc21`, for which the TGI in experiment [1], in [2], in experiment [3], in experiment [4], in [5] and in experiment [7] was > 100 µM throughout. Further, the TGI in [10], in [8] and in experiment [9] was > 100 µM each time.
In the case of `CCc1nc(N)c2nc(-c3cccs3)oc2n1`, the TGI in experiment [1], in [2], in experiment [3], in experiment [4], in experiment [5] and in [7] was > 100 µM throughout. Moreover, the TGI in experiment [10], in experiment [8] and in experiment [9] was > 100 µM in each case.
